PubChem BioAssay (NCI)
Values joined by “and” are separate entries in the source; they are usually repeats but may differ in a detail not shown here. Equal entries are not always repeated.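 Compound exposure: 48 hours, 5 concentrations, 96-well plates. GI50: concentration for 50% inhibition of growth. At the TGI there is no net growth.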

Experiments:
Experiment in all cases: NCI anticancer screen, dose series, 48 h
NCI/ADR-RES ovarian = test system: NCI/ADR-RES ovarian
HL-60(TB) leukemia = test system: HL-60(TB) leukemia
A549 NSCLC = test system: A549 NSCLC
M14 melanoma = test system: M14 melanoma
SF-539 CNS = test system: SF-539 CNS
SNB-19 CNS = test system: SNB-19 CNS
HOP-92 NSCLC = test system: HOP-92 NSCLC
RXF 393 renal = test system: RXF 393 renal
NCI-H23 lung = test system: NCI-H23 lung
SW-620 colon = test system: SW-620 colon

Compound: Cc1[nH]c(/C=C2\C(=O)Nc3ccc(F)cc32)c(C)c1C(=O)NC[C@H](O)CN1CCOCC1
- GI50 (NCI/ADR-RES ovarian): > 10 µM
- TGI (NCI/ADR-RES ovarian): > 10 µM
- GI50 (HL-60(TB) leukemia): 1.03 µM
- TGI (HL-60(TB) leukemia): 5.43 µM
- GI50 (A549 NSCLC): 6.02 µM
- TGI (A549 NSCLC): > 10 µM
- GI50 (M14 melanoma): 0.943 µM
- TGI (M14 melanoma): > 10 µM
- GI50 (SF-539 CNS): 4.31 µM
- TGI (SF-539 CNS): > 10 µM
- GI50 (SNB-19 CNS): > 10 µM
- TGI (SNB-19 CNS): > 10 µM
- GI50 (HOP-92 NSCLC): 1.17 µM
- TGI (HOP-92 NSCLC): 6.84 µM
- GI50 (RXF 393 renal): 2.33 µM
- TGI (RXF 393 renal): > 10 µM
- GI50 (NCI-H23 lung): 2.41 µM
- TGI (NCI-H23 lung): > 10 µM
- GI50 (SW-620 colon): 2.3 µM
- TGI (SW-620 colon): > 10 µM

Compound: COc1cc2c(/C=C3/C(=O)Nc4ccccc43)c(Cl)n(Cc3ccccc3[N+](=O)[O-])c2cc1C
- GI50 (NCI/ADR-RES ovarian): 4.71 µM
- TGI (NCI/ADR-RES ovarian): 20.3 µM
- GI50 (HL-60(TB) leukemia): 4.78 µM
- TGI (HL-60(TB) leukemia): > 100 µM
- GI50 (A549 NSCLC): 7.8 µM
- TGI (A549 NSCLC): > 100 µM
- GI50 (M14 melanoma): 6.35 µM
- TGI (M14 melanoma): 30.2 µM
- GI50 (SF-539 CNS): 14.3 µM
- TGI (SF-539 CNS): 40.4 µM
- GI50 (SNB-19 CNS): 11.1 µM
- TGI (SNB-19 CNS): 30.8 µM
- GI50 (HOP-92 NSCLC): 7.25 µM
- TGI (HOP-92 NSCLC): 26.8 µM
- GI50 (RXF 393 renal): 18.9 µM
- TGI (RXF 393 renal): 96.2 µM
- GI50 (NCI-H23 lung): 7.77 µM
- TGI (NCI-H23 lung): 22.3 µM
- GI50 (SW-620 colon): 7.91 µM
- TGI (SW-620 colon): 34.5 µM

Compound: O=C(Nc1ncc(Cc2ccccc2Cl)s1)c1ccc2c(c1)OCCO2
- GI50 (NCI/ADR-RES ovarian): 0.322 µM
- TGI (NCI/ADR-RES ovarian): 22.2 µM
- GI50 (HL-60(TB) leukemia): 0.396 µM
- GI50 (A549 NSCLC): 0.466 µM
- TGI (A549 NSCLC): > 100 µM
- GI50 (M14 melanoma): 0.246 µM
- TGI (M14 melanoma): 14.5 µM
- GI50 (SF-539 CNS): 0.258 µM
- TGI (SF-539 CNS): 0.741 µM
- GI50 (SNB-19 CNS): 0.548 µM
- TGI (SNB-19 CNS): > 45.5 µM
- GI50 (HOP-92 NSCLC): 4.08 µM
- TGI (HOP-92 NSCLC): > 81.8 µM
- GI50 (RXF 393 renal): 0.255 µM
- TGI (RXF 393 renal): 1.19 µM
- GI50 (NCI-H23 lung): 0.625 µM
- TGI (NCI-H23 lung): > 100 µM
- GI50 (SW-620 colon): 0.358 µM
- TGI (SW-620 colon): > 100 µM

Compound: N=C(N)CCCCCCCCC(=N)N
- GI50 (NCI/ADR-RES ovarian): 14.8 µM
- TGI (NCI/ADR-RES ovarian): > 100 µM
- GI50 (HL-60(TB) leukemia): 29.5 µM
- TGI (HL-60(TB) leukemia): > 100 µM
- GI50 (A549 NSCLC): 6.6 µM
- TGI (A549 NSCLC): > 100 µM
- GI50 (M14 melanoma): 56.7 µM
- TGI (M14 melanoma): > 100 µM
- GI50 (SF-539 CNS): 35.4 µM
- TGI (SF-539 CNS): > 100 µM
- GI50 (SNB-19 CNS): 22.5 µM
- TGI (SNB-19 CNS): > 100 µM
- GI50 (HOP-92 NSCLC): 19.1 µM
- TGI (HOP-92 NSCLC): > 100 µM
- GI50 (RXF 393 renal): > 100 µM
- TGI (RXF 393 renal): > 100 µM
- GI50 (NCI-H23 lung): 5.11 µM
- TGI (NCI-H23 lung): 70.4 µM
- GI50 (SW-620 colon): 32.5 µM
- TGI (SW-620 colon): > 100 µM

Compound: COc1ccc(-c2cn[nH]c2-c2cc(OC)c(OC)c(OC)c2)cc1N
- GI50 (NCI/ADR-RES ovarian): < 0.01 µM and 0.0379 µM
- TGI (NCI/ADR-RES ovarian): > 100 µM
- GI50 (HL-60(TB) leukemia): < 0.01 µM and 0.0248 µM
- TGI (HL-60(TB) leukemia): < 0.01 µM and 0.0834 µM
- GI50 (A549 NSCLC): < 0.01 µM and 0.0425 µM
- TGI (A549 NSCLC): > 100 µM
- GI50 (M14 melanoma): < 0.01 µM and 0.0247 µM
- TGI (M14 melanoma): > 100 µM
- GI50 (SF-539 CNS): < 0.01 µM
- TGI (SF-539 CNS): > 100 µM
- GI50 (SNB-19 CNS): < 0.01 µM and 0.0484 µM
- TGI (SNB-19 CNS): > 100 µM
- TGI (HOP-92 NSCLC): > 100 µM
- GI50 (RXF 393 renal): 0.0247 µM
- TGI (RXF 393 renal): > 100 µM
- GI50 (NCI-H23 lung): < 0.01 µM and 0.0634 µM
- TGI (NCI-H23 lung): > 100 µM
- GI50 (SW-620 colon): < 0.01 µM and 0.0397 µM
- TGI (SW-620 colon): > 100 µM

Compound: Cc1cc2c(F)c(Oc3ncnn4cc(OC[C@@H](C)OC(=O)[C@H](C)N)c(C)c34)ccc2[nH]1
- GI50 (NCI/ADR-RES ovarian): 9.79 µM
- TGI (NCI/ADR-RES ovarian): 30.2 µM
- GI50 (HL-60(TB) leukemia): 7.2 µM
- TGI (HL-60(TB) leukemia): 26.3 µM
- GI50 (A549 NSCLC): 8.86 µM
- TGI (A549 NSCLC): 23.3 µM
- GI50 (M14 melanoma): 12.3 µM
- TGI (M14 melanoma): 25.7 µM
- GI50 (SF-539 CNS): 4.81 µM
- TGI (SF-539 CNS): 17.3 µM
- GI50 (SNB-19 CNS): 9.99 µM
- TGI (SNB-19 CNS): 23 µM
- GI50 (HOP-92 NSCLC): 16.6 µM
- TGI (HOP-92 NSCLC): 33.5 µM
- GI50 (RXF 393 renal): 8.4 µM
- TGI (RXF 393 renal): 22.5 µM
- GI50 (NCI-H23 lung): 11.8 µM
- TGI (NCI-H23 lung): 25.9 µM
- GI50 (SW-620 colon): 6.33 µM
- TGI (SW-620 colon): 19.7 µM

Compound: C=C(CN1CCc2ccccc2C1)c1ccc(C(=O)Nc2ccc(N)cc2)cc1
- GI50 (NCI/ADR-RES ovarian): 19.1 µM
- TGI (NCI/ADR-RES ovarian): > 100 µM
- GI50 (HL-60(TB) leukemia): 7.07 µM
- TGI (HL-60(TB) leukemia): 36.7 µM
- GI50 (A549 NSCLC): 18.7 µM
- TGI (A549 NSCLC): 52.5 µM
- GI50 (M14 melanoma): 11.8 µM
- TGI (M14 melanoma): 65.6 µM
- GI50 (SF-539 CNS): 19.3 µM
- TGI (SF-539 CNS): 57.4 µM
- GI50 (SNB-19 CNS): 28.3 µM
- TGI (SNB-19 CNS): > 100 µM
- GI50 (HOP-92 NSCLC): 0.0854 µM
- TGI (HOP-92 NSCLC): 12.7 µM
- GI50 (RXF 393 renal): 16.9 µM
- TGI (RXF 393 renal): 91.4 µM
- GI50 (NCI-H23 lung): 17.4 µM
- TGI (NCI-H23 lung): > 100 µM
- GI50 (SW-620 colon): 30.5 µM
- TGI (SW-620 colon): > 100 µM

Compound: C[C@]12CC[C@@H]3c4ccc(O)cc4CC[C@H]3[C@@H]1CC[C@@H]2NS(=O)(=O)Cc1ccc(Cl)cc1
- GI50 (NCI/ADR-RES ovarian): 2.69 µM
- TGI (NCI/ADR-RES ovarian): 10.7 µM
- GI50 (HL-60(TB) leukemia): 3.26 µM
- TGI (HL-60(TB) leukemia): 14.5 µM
- GI50 (A549 NSCLC): 2.98 µM
- TGI (A549 NSCLC): 11 µM
- GI50 (M14 melanoma): 2.49 µM
- TGI (M14 melanoma): 6.25 µM
- GI50 (SF-539 CNS): 1.88 µM
- TGI (SF-539 CNS): 4.39 µM
- GI50 (SNB-19 CNS): 3.66 µM
- TGI (SNB-19 CNS): 47.1 µM
- GI50 (HOP-92 NSCLC): 2.13 µM
- TGI (HOP-92 NSCLC): 7.24 µM
- GI50 (RXF 393 renal): 2.04 µM
- TGI (RXF 393 renal): 6.06 µM
- GI50 (NCI-H23 lung): 2.76 µM
- TGI (NCI-H23 lung): 10.8 µM
- GI50 (SW-620 colon): 3.5 µM
- TGI (SW-620 colon): 17.3 µM

Compound: Cc1ccc2c(=O)c3cccc(CC(=O)O)c3oc2c1C
- GI50 (NCI/ADR-RES ovarian): > 100 µM
- TGI (NCI/ADR-RES ovarian): > 100 µM
- GI50 (HL-60(TB) leukemia): > 100 µM
- TGI (HL-60(TB) leukemia): > 100 µM
- GI50 (A549 NSCLC): > 100 µM
- TGI (A549 NSCLC): > 100 µM
- GI50 (M14 melanoma): > 100 µM
- TGI (M14 melanoma): > 100 µM
- GI50 (SF-539 CNS): > 100 µM
- TGI (SF-539 CNS): > 100 µM
- GI50 (SNB-19 CNS): > 100 µM
- TGI (SNB-19 CNS): > 100 µM
- GI50 (HOP-92 NSCLC): > 100 µM
- TGI (HOP-92 NSCLC): > 100 µM
- GI50 (RXF 393 renal): > 100 µM
- TGI (RXF 393 renal): > 100 µM
- GI50 (NCI-H23 lung): > 100 µM
- TGI (NCI-H23 lung): > 100 µM
- GI50 (SW-620 colon): > 100 µM
- TGI (SW-620 colon): > 100 µM

Compound: CN(C)c1ccc2c3c(c(=O)oc2c1)CCC3
- TGI (NCI/ADR-RES ovarian): > 100 µM
- TGI (HL-60(TB) leukemia): > 100 µM
- TGI (A549 NSCLC): > 100 µM
- TGI (M14 melanoma): > 100 µM
- TGI (SF-539 CNS): > 100 µM
- TGI (SNB-19 CNS): > 100 µM
- TGI (HOP-92 NSCLC): > 100 µM
- TGI (RXF 393 renal): > 100 µM
- TGI (NCI-H23 lung): > 100 µM
- TGI (SW-620 colon): > 100 µM
